From PubChem BioAssay AID328 (DTP/NCI, 2004)
“And” between values parts separate entries of the source, which are not always exact repeats. Equal entries are not always repeated. Toxic doses and inconclusive results are not listed.

System: BDF1 mice, P388 leukemia ip, median survival T/C
Assay: NCI In Vivo Anticancer Drug Screen. Data for tumor model P388 Leukemia (intraperitoneal) in B6D2F1 (BDF1) mice
Conditions: endpoint: median survival time, higher = longer survival
Outline: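 Mice carrying the transplantable tumour receive compound or vehicle. Survival is followed in each arm, and the treated measure is divided by the vehicle measure.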

[1] = dose: 100.0 mg/kg/injection, schedule: Q04DX003 (ip), vehicle: saline with Tween-80
[2] = dose: 200.0 mg/kg/injection, schedule: Q04DX003 (ip), vehicle: saline with Tween-80
[3] = dose: 400.0 mg/kg/injection, schedule: Q04DX003 (ip), vehicle: saline with Tween-80
[4] = dose: 50.0 mg/kg/injection, schedule: Q01DX009 (ip), vehicle: Klucel (hydroxypropylcellulose) (HPC)
[5] = dose: 100.0 mg/kg/injection, schedule: Q01DX009 (ip), vehicle: Klucel (hydroxypropylcellulose) (HPC)
[6] = dose: 200.0 mg/kg/injection, schedule: Q04DX003 (ip), vehicle: Klucel (hydroxypropylcellulose) (HPC)
[7] = dose: 100.0 mg/kg/injection, schedule: Q04DX002 (ip), vehicle: saline with Tween-80
[8] = dose: 200.0 mg/kg/injection, schedule: Q04DX002 (ip), vehicle: saline with Tween-80
[9] = dose: 400.0 mg/kg/injection, schedule: Q04DX002 (ip), vehicle: saline with Tween-80

O=C(O)CNOCN1C(=O)c2ccccc2C1=O
T/C (dose: 100.0 mg/kg/injection, schedule: Q01DX001 (ip), vehicle: Klucel (hydroxypropylcellulose) (HPC)): 104 % of control
T/C (dose: 200.0 mg/kg/injection, schedule: Q01DX001 (ip), vehicle: Klucel (hydroxypropylcellulose) (HPC)): 91 % of control
T/C (dose: 400.0 mg/kg/injection, schedule: Q01DX001 (ip), vehicle: Klucel (hydroxypropylcellulose) (HPC)): 95 % of control

Cn1c2ccccc2c(=O)c2ccc(Cl)cc21
T/C [1]: 105 % of control
T/C [2]: 105 % of control
T/C [3]: 100 % of control

Nc1nc(N)c2cc(N3CCCC3c3ccc(Cl)c(Cl)c3)ccc2n1 (centres undefined)
T/C (dose: 0.78 mg/kg/injection, schedule: Q01DX009 (ip), vehicle: water): 110 % of control
T/C (dose: 1.56 mg/kg/injection, schedule: Q01DX009 (ip), vehicle: water): 117 % of control
T/C (dose: 3.12 mg/kg/injection, schedule: Q01DX009 (ip), vehicle: water): 113 % of control
T/C (dose: 3.12 mg/kg/injection, schedule: Q04DX003 (ip), vehicle: water): 104 % of control and 109 % of control
T/C (dose: 6.25 mg/kg/injection, schedule: Q01DX009 (ip), vehicle: water): 119 % of control
T/C (dose: 6.25 mg/kg/injection, schedule: Q04DX003 (ip), vehicle: water): 110 % of control and 116 % of control
T/C (dose: 12.5 mg/kg/injection, schedule: Q04DX003 (ip), vehicle: water): 108 % of control and 114 % of control
T/C (dose: 20.0 mg/kg/injection, schedule: Q04DX003 (ip), vehicle: water): 111 % of control
T/C (dose: 25.0 mg/kg/injection, schedule: Q04DX003 (ip), vehicle: water): 116 % of control

COC(=O)c1ccc(CSc2ccccc2NC(=S)Nc2cccc(C(F)(F)F)c2)o1
T/C (dose: 200.0 mg/kg/injection, schedule: Q01DX009 (ip), vehicle: saline with Tween-80): 90 % of control

Oc1ccc(C2CCCCC2)c(O)c1
T/C [4]: 100 % of control
T/C (dose: 50.0 mg/kg/injection, schedule: Q04DX003 (ip), vehicle: Klucel (hydroxypropylcellulose) (HPC)): 91 % of control
T/C [5]: 104 % of control
T/C (dose: 200.0 mg/kg/injection, schedule: Q01DX009 (ip), vehicle: Klucel (hydroxypropylcellulose) (HPC)): 100 % of control
T/C [6]: 91 % of control

CC(/C(=N/N(C)C)c1ccccc1)C(C)/C(=N\N(C)C)c1ccccc1 (centres undefined)
T/C [7]: 97 % of control
T/C [8]: 110 % of control
T/C [9]: 112 % of control

CC1(C)OC(COS(C)(=O)=O)C(COS(C)(=O)=O)O1 (centres undefined)
T/C [7]: 101 % of control
T/C [8]: 104 % of control
T/C [9]: 104 % of control

Cc1ccc2c(c1)CN(Cc1ccccc1)CO2
T/C (dose: 100.0 mg/kg/injection, schedule: Q04DX003 (ip), vehicle: Klucel (hydroxypropylcellulose) (HPC)): 104 % of control
T/C [6]: 100 % of control
T/C (dose: 400.0 mg/kg/injection, schedule: Q04DX003 (ip), vehicle: Klucel (hydroxypropylcellulose) (HPC)): 100 % of control

Nc1ccc(C(=O)O)cc1S(=O)(=O)c1cc(C(=O)O)ccc1N
T/C [4]: 88 % of control
T/C [5]: 91 % of control

C[N+](C)(C)CN1C(=O)c2ccccc2C1=O
T/C (dose: 50.0 mg/kg/injection, schedule: Q01DX009 (ip), vehicle: saline): 87 % of control
T/C (dose: 100.0 mg/kg/injection, schedule: Q01DX009 (ip), vehicle: saline): 100 % of control

O=C1C=C(C2OC(CO)C(O)C2O)C(=O)N1 (centres undefined)
T/C (dose: 0.2 mg/kg/injection, schedule: Q01DX010 (ip), vehicle: saline): 110 % of control
T/C (dose: 0.37 mg/kg/injection, schedule: Q01DX001 (ip), vehicle: saline): 95 % of control
T/C (dose: 0.5 mg/kg/injection, schedule: Q01DX010 (ip), vehicle: saline): 110 % of control
T/C (dose: 0.75 mg/kg/injection, schedule: Q01DX001 (ip), vehicle: saline): 91 % of control
T/C (dose: 1.5 mg/kg/injection, schedule: Q01DX001 (ip), vehicle: saline): 95 % of control
T/C (dose: 2.0 mg/kg/injection, schedule: Q01DX010 (ip), vehicle: saline): 150 % of control
T/C (dose: 3.0 mg/kg/injection, schedule: Q01DX001 (ip), vehicle: saline): 110 % of control
T/C (dose: 6.0 mg/kg/injection, schedule: Q01DX001 (ip), vehicle: saline): 100 % of control
T/C (dose: 8.0 mg/kg/injection, schedule: Q01DX010 (ip), vehicle: saline): 150 % of control and 155 % of control and 157 % of control
T/C (dose: 12.0 mg/kg/injection, schedule: Q01DX001 (ip), vehicle: saline): 100 % of control
T/C (dose: 16.0 mg/kg/injection, schedule: Q01DX010 (ip), vehicle: saline): 121 % of control

Cc1sc2ncnc(N)c2c1C
T/C (dose: 50.0 mg/kg/injection, schedule: Q04DX003 (ip), vehicle: saline with Tween-80): 103 % of control
T/C [1]: 105 % of control
T/C [2]: 94 % of control
T/C [3]: 105 % of control
